Experimental data reported in patent publication US20110130357A1 (priority 2008, published 2011).
In brackets after ≈: the same amount, converted by molar mass.

Key:
[1] = test system: Klebsiella pneumoniae (ATCC 138883); type: cell-based; conditions: 35° C., 12-18 hrs
[2] = test system: F. graminearum isolate B-4-5A; type: in vivo, Fusarium graminearum on wheat (Alsen and Frontana cultivars); conditions: 30 μg/mL aminoglycoside mixed in inoculum, wheat leaves
[3] = test system: F. graminearum; type: cell-based, Fusarium graminearum; conditions: for lethality to F. graminearum: in the range of 500 to 1 μg/mL
[4] = test system: Pseudomonas aeruginosa (ATCC 27853); type: cell-based; conditions: 35° C., 12-18 hrs
[5] = test system: Ulocladium sp.; assay: MIC against screened fungi
[6] = test system: Staphylococcus aureus ATCC 25923; type: cell-based; conditions: 35° C., 12-18 hrs
[7] = test system: Fusarium oxysporium; assay: MIC against screened fungi
[8] = test system: screened fungi; assay: MIC against screened fungi (all species); type: cell-based
[9] = test system: Escherichia coli TG1 (pET28a); type: cell-based; conditions: 35° C., 12-18 hrs
[10] = test system: Enterococcus faecalis (ATCC29212); type: cell-based; conditions: 35° C., 12-18 hrs
[11] = test system: F. graminearum; type: cell-based, Fusarium graminearum; conditions: PDB+casamino acids containing 0.02, 0.08 or 0.2% (v/v) surfactant
[12] = test system: wheat seedlings; conditions: in vivo
[13] = test system: selected bacterial pathogens; assay: Antibacterial MIC over the selected bacterial pathogens; type: cell-based; conditions: read-out: Corresponding MIC values (span over the tested bacteria)
Method: The minimum inhibitory concentration of M038 was determined for selected bacterial pathogens. For purposes of the experiments discussed in this paragraph, the minimum inhibitory concentration (MIC) is defined as the minimum concentration of compound needed to inhibit the growth of bacteria. A solution of selected bacteria was inoculated Trypticase Soy broth at 35° C. and incubated for 1-2 hours. Following incubation, the bacterial concentrations were determined, and diluted with broth, if necessary, to an absorption value of 0.08 to 0.1 at 625 nm. The adjusted inoculated medium (100 μL) was diluted with 10 ml broth, and then applied to a 96-well microtiter plate (50 μL). A series of solutions (50 μL each in 2-fold dilution) of M038 was added to the testing wells. The 96-well plate was incubated at 35° C. for 12-18 hrs. The MIC results were repeated at least three times.

Compound	lesion development / leaf infection by F. graminearum [2]	effect of surfactant on in vitro activity (MIC) [11]	phytotoxicity [12]	phytotoxicity (relative chlorophyll content) [12]	lethality to F. graminearum [3]	further results
CCCCCCCCO[C@H]1[C@H](O)[C@@H](O)[C@@H](O[C@@H]2[C@@H](O)[C@H](O[C@H]3O[C@H](CN)[C@@H](O)[C@H](O)[C@H]3N)[C@@H](N)C[C@H]2N)O[C@@H]1C [JL038, 6-O-(6-Deoxy-4-O-n-octyl-α-D-glucopyranosyl)neamine]	prevents lesion development	did not affect	no phytotoxicity	phytotoxic		Minimal inhibitory concentration (MIC) [1]: 250 μ/mL; MIC (MIC90, concentration required to inhibit 90% of the growth or more) ([3]; PDB+casamino acids, 24° C., 72 h, tested range 500 to 1 μg/mL): 31.3 µg/mL; Minimal inhibitory concentration (MIC) [4]: 250 µg/mL (≈ 431 µM); MIC [5]: 7.8 µg/mL (≈ 13.4 µM); Minimal inhibitory concentration (MIC) [6]: 250 μ/mL; MIC [7]: 7.8 µg/mL (≈ 13.4 µM); MICs for all species of screened fungi ([8]; all screened fungi): ≤ 31.3 µg/mL; Minimal inhibitory concentration (MIC) [9]: 125-250 μ/mL; Minimal inhibitory concentration (MIC) [10]: 125-250 μ/mL; chlorophyll damage (relative chlorophyll content) [12]: no chlorophyll damages; phytotoxicity (chlorosis in the absence of fungal growth) [12]: showed phytotoxicity
NCC1O[C@H](OC2C(N)CC(N)[C@@H](OC3OCC(O)[C@@H](O)[C@H]3O)[C@H]2O)C(N)[C@@H](O)[C@@H]1O (stereo partly drawn) [JL39]					not lethal	
NCC1O[C@H](OC2C(N)CC(N)[C@@H](OC3OCC(O)[C@@H](N)[C@H]3O)[C@H]2O)C(N)[C@@H](O)[C@@H]1O (stereo partly drawn) [JL40, reference compound]	did not prevent leaf infection	did not affect	phytotoxic	phytotoxic		
NCC1O[C@H](OC2C(N)CC(N)[C@@H](OC3O[C@H](CO)C(O)[C@@H](N)[C@H]3O)[C@H]2O)C(O)[C@@H](O)[C@@H]1O (stereo partly drawn) [kanamycin A, Kanamycin A]					not lethal	
NC[C@H]1O[C@H](O[C@H]2[C@H](O)[C@@H](O[C@H]3O[C@H](CO)[C@@H](O)[C@H](N)[C@H]3O)[C@H](N)C[C@@H]2N)[C@H](N)[C@@H](O)[C@@H]1O [kanamycin B, Kanamycin B, reference compound]	did not prevent leaf infection	did not affect	phytotoxic	phytotoxic		MIC [13]: 980 to 1950 µg/mL (≈ 2030 to 4030 µM); antifungal effectiveness against screened fungi ([8]; screened fungi of Table 2): substantially ineffective
